Laboratory results published in article PMC7753147, “High-throughput determination of protein affinities using unmodified peptide libraries in nanomolar scale” (iScience, 2020).

Legend:
gephE = assay: µSPOT peptide microarray binding assay with recombinant gephE
native geph = assay: µSPOT peptide microarray binding assay with native geph from mouse brain lysate
FL-geph = assay: µSPOT peptide microarray binding assay with full-length geph
[1] = µSPOT peptide microarray, GlyRβ full positional scan, recombinant gephE, intensity normalised to wild-type sequence DLRSNDFSIVGSLPR (=1)
[2] = µSPOT peptide microarray, GlyRβ full positional scan, native geph from mouse brain lysate, intensity normalised to wild-type sequence DLRSNDFSIVGSLPR (=1)
[3] = µSPOT peptide microarray, GlyRβ full positional scan, intensity normalised to wild-type sequence DLRSNDFSIVGSLPR (=1)
[4] = µSPOT full positional scan of GlyRβ 15-mer DLRSNDFSIVGSLPR, intensity normalised to wild-type sequence (= 1)
[5] = µSPOT full positional scan of GlyRβ 15-mer DLRSNDFSIVGSLPR, native geph, intensity normalised to wild-type sequence (= 1)

| Sequence | gephE Binding Intensity [norm.] (gephE; [1]) | Native geph Binding Intensity [norm.] (native geph; [2]) | Fl-geph Binding Intensity [norm.] (FL-geph; [3]) | gephE Binding Intensity [norm.] (gephE; [4]) | Native geph Binding Intensity [norm.] (native geph; [5]) | Fl-geph Binding Intensity [norm.] (FL-geph; [4]) |
| --- | --- | --- | --- | --- | --- | --- |
| DLRSNEFSIVGSLPR [GlyRβ_Full_Positional_Scan_111] | 0.96 norm. | 0.97 norm. | 0.94 norm. | – | – | – |
| DLRSNDFWIVGSLPR [GlyRβ_Full_Positional_Scan_148, GlyR β 414-428 variant S421W] | 0.73 norm. | 0.24 norm. | 0.79 norm. | – | – | – |
| DLRSNHFSIVGSLPR [GlyRβ_Full_Positional_Scan_113] | 0.86 norm. | 0.48 norm. | 0.85 norm. | – | – | – |
| DPRSNDFSIVGSLPR [GlyRβ_Full_Positional_Scan_025] | 1.01 norm. | 1.02 norm. | 1.01 norm. | – | – | – |
| DLRSNDFSIVQSLPR [GlyRβ_Full_Positional_Scan_220, GlyR β 414-428 variant G424Q] | – | – | – | 0.43 norm. | 0.29 norm. | 0.45 norm. |
| DLRSNDFPIVGSLPR [GlyRβ_Full_Positional_Scan_145, GlyR β 414-428 variant S421P] | 0.48 norm. | 0.25 norm. | 0.66 norm. | – | – | – |
| DLRSNDFSIVGSLPH [GlyRβ_Full_Positional_Scan_293] | – | – | – | 0.96 norm. | 0.92 norm. | 1.05 norm. |
| DLRSNDPSIVGSLPR [GlyRβ_Full_Positional_Scan_125, GlyR β 414-428 variant F420P] | 0.54 norm. | 0.34 norm. | 0.65 norm. | – | – | – |
| DLRSNDFSIVGSMPR [GlyRβ_Full_Positional_Scan_258] | – | – | – | 0.69 norm. | 0.92 norm. | 1.08 norm. |
| DLRSNDFSIVGSHPR [GlyRβ_Full_Positional_Scan_253] | – | – | – | 1.08 norm. | 1.16 norm. | 1.02 norm. |
| DLRSNDFSIVESLPR [GlyRβ_Full_Positional_Scan_211, GlyR β 414-428 variant G424E] | 0.23 norm. | 0.14 norm. | 0.18 norm. | – | – | – |
| DLRSNDFSIVYSLPR [GlyRβ_Full_Positional_Scan_209, GlyR β 414-428 variant G424Y] | 0.41 norm. | 0.2 norm. | 0.48 norm. | – | – | – |
| DLSSNDFSIVGSLPR [GlyRβ_Full_Positional_Scan_055] | 0.87 norm. | 1.35 norm. | 1.4 norm. | – | – | – |
| DLRSNDFSIVGCLPR [GlyRβ_Full_Positional_Scan_237] | – | – | – | 0.63 norm. | 0.48 norm. | 0.83 norm. |
| DLRSNDFKIVGSLPR [GlyRβ_Full_Positional_Scan_154, GlyR β 414-428 variant S421K] | 0.65 norm. | 0.24 norm. | 0.92 norm. | – | – | – |
| DLRSNDNSIVGSLPR [GlyRβ_Full_Positional_Scan_139, GlyR β 414-428 variant F420N] | 0.52 norm. | 0.4 norm. | 0.63 norm. | – | – | – |
| DLRSNDFSIVGSCPR [GlyRβ_Full_Positional_Scan_257] | – | – | – | 0.85 norm. | 0.88 norm. | 0.87 norm. |
| DLRSCDFSIVGSLPR [GlyRβ_Full_Positional_Scan_097] | 0.99 norm. | 0.83 norm. | 0.76 norm. | – | – | – |
| DLISNDFSIVGSLPR [GlyRβ_Full_Positional_Scan_043] | 0.9 norm. | 1.69 norm. | 1.35 norm. | – | – | – |

| Sequence | gephE Binding Intensity [norm.] (gephE; [1]) | Native geph Binding Intensity [norm.] (native geph; [2]) | Fl-geph Binding Intensity [norm.] (FL-geph; [3]) | gephE Binding Intensity [norm.] (gephE; [4]) | Native geph Binding Intensity [norm.] (native geph; [5]) | Fl-geph Binding Intensity [norm.] (FL-geph; [4]) |
| --- | --- | --- | --- | --- | --- | --- |
| DLRSNDFSIVGWLPR [GlyRβ_Full_Positional_Scan_228] | – | – | – | 0.57 norm. | 0.19 norm. | 0.67 norm. |
| LLRSNDFSIVGSLPR [GlyRβ_Full_Positional_Scan_004] | 1.18 norm. | 0.66 norm. | 1.1 norm. | – | – | – |
| DLRSNDFQIVGSLPR [GlyRβ_Full_Positional_Scan_160, GlyR β 414-428 variant S421Q] | 0.66 norm. | 0.47 norm. | 0.9 norm. | – | – | – |
| DVRSNDFSIVGSLPR [GlyRβ_Full_Positional_Scan_026] | 1.03 norm. | 0.98 norm. | 1.05 norm. | – | – | – |
| DLRWNDFSIVGSLPR [GlyRβ_Full_Positional_Scan_068] | 0.92 norm. | 0.95 norm. | 0.81 norm. | – | – | – |
| DYRSNDFSIVGSLPR [GlyRβ_Full_Positional_Scan_029] | 0.95 norm. | 0.73 norm. | 0.84 norm. | – | – | – |
| DLRSRDFSIVGSLPR [GlyRβ_Full_Positional_Scan_092] | 0.89 norm. | 0.62 norm. | 0.77 norm. | – | – | – |
| DLRSNDFSIVGYLPR [GlyRβ_Full_Positional_Scan_229] | – | – | – | 0.53 norm. | 0.31 norm. | 0.59 norm. |
| DLRSNDFSIVGSLPN [GlyRβ_Full_Positional_Scan_299] | – | – | – | 0.98 norm. | 1.37 norm. | 1.36 norm. |
| DLRSNDFSIVASLPR [GlyRβ_Full_Positional_Scan_201, GlyR β 414-428 variant G424A] | 0.34 norm. | 0.18 norm. | 0.56 norm. | – | – | – |
| DLRSNDFSIVGSLHR [GlyRβ_Full_Positional_Scan_273] | – | – | – | 0.62 norm. | 0.55 norm. | 1.08 norm. |
| DLRSFDFSIVGSLPR [GlyRβ_Full_Positional_Scan_087] | 0.9 norm. | 0.55 norm. | 0.75 norm. | – | – | – |
| DLRSNDFSIVGSLCR [GlyRβ_Full_Positional_Scan_277] | – | – | – | 0.62 norm. | 0.36 norm. | 0.67 norm. |
| DLRSNDFSIVGHLPR [GlyRβ_Full_Positional_Scan_233] | – | – | – | 0.8 norm. | 0.9 norm. | 1.01 norm. |
| DLRSNDFSSVGSLPR [GlyRβ_Full_Positional_Scan_175, GlyR β 414-428 variant I422S] | 0.52 norm. | 0.27 norm. | 0.87 norm. | – | – | – |
| DLRSNDFSIVGSLYR [GlyRβ_Full_Positional_Scan_269] | – | – | – | 0.78 norm. | 0.59 norm. | 0.71 norm. |
| DLRSNDFSIVGSLPG [GlyRβ_Full_Positional_Scan_282] | – | – | – | 0.88 norm. | 0.84 norm. | 0.92 norm. |
| DLRSNDFSIVSSLPR [GlyRβ_Full_Positional_Scan_215, GlyR β 414-428 variant G424S] | – | – | – | 0.4 norm. | 0.2 norm. | 0.44 norm. |
